Experimental data: ChEMBL document CHEMBL4402592, “Targeting Endoplasmic Reticulum α-Glucosidase I with a Single-Dose Iminosugar Treatment Protects against Lethal Influenza and Dengue Virus Infections” (J Med Chem, 2020)
The source made the active and inactive calls. The calls are words filed in the database; no cut-off is given here.

Legend:
dengue virus type 2 [1] = assay: (§1) Antiviral activity against Dengue virus 2 S221 infected in DENV antibody dependent enhancement AG129 mouse model assessed as reduction in IFN-gamma level at 750 mg/kg, po administered via gavage as single dose at 36 hrs post infection measured at 72 hrs post-infection by electrochemiluminescence based method; type: functional, organism-based
Mus musculus [2] = assay: In vivo inhibition of ERGlu1 in BALB/c mouse assessed as increase in mono-glucosylated FOS level in spleen at 100 to 1000 mg/kg, po administered via gavage at 8 hrs post-infection and measured at 8 hrs post-dose by NP-HPLC analysis; type: functional, organism-based
Influenza A virus [3] = assay: Antiviral activity against Influenza A virus (A/Texas/36/1991(H1N1)) infected in BALB/c mouse assessed as median death time at 750 mg/kg, po administered via gavage as single dose at 24 hrs post infection (reference value: 8.5 days); type: functional
Influenza A virus [4] = assay: Antiviral activity against Influenza A virus (A/Texas/36/1991(H1N1)) infected in BALB/c mouse assessed as animal survival at 750 mg/kg, po administered via gavage as two doses at 8 and 32 hrs post infection (reference value: 0%); type: functional
Influenza A virus [5] = assay: Antiviral activity against Influenza A virus (A/Texas/36/1991(H1N1)) infected in BALB/c mouse assessed as median death time at 750 mg/kg, po administered via gavage as two doses at 8 hrs and 32 hrs post infection (reference value: 9 days); type: functional
Mus musculus [6] = assay: In vivo inhibition of ERGlu1 in BALB/c mouse assessed as increase in mono-glucosylated FOS level in lung at 100 to 1000 mg/kg, po administered via gavage at 8 hrs post-infection and measured at 8 hrs post-dose by NP-HPLC analysis; type: functional, organism-based
Mus musculus [7] = assay: In vivo inhibition of ERGlu2 in BALB/c mouse assessed as increase in mono-glucosylated FOS level in spleen at 100 mg/kg, po administered via gavage starting at 8 hrs post-infection and continuing tid for 5 days and measured at 8 hrs post-final dose by NP-HPLC analysis; type: functional, organism-based
Influenza A virus [8] = assay: Antiviral activity against Influenza A virus (A/Texas/36/1991(H1N1)) infected in BALB/c mouse assessed as animal survival at 250 mg/kg, po administered via gavage as two doses at 8 and 32 hrs post infection (reference value: 0%); type: functional
dengue virus type 2 [9] = assay: as §1, with “KC-GRO” for “IFN-gamma”, “two doses” for “single dose”, “36 hrs and 52” for “36”, “60” for “72”; type: functional, organism-based
Influenza A virus [10] = assay: Antiviral activity against Influenza A virus (A/Texas/36/1991(H1N1)) infected in BALB/c mouse assessed as median death time at 250 mg/kg, po administered via gavage as single dose at 8 hrs post infection; type: functional
dengue virus type 2 [11] = assay: as §1, with “KC-GRO” for “IFN-gamma”, “60” for “72”; type: functional, organism-based
Mus musculus [12] = assay: In vivo inhibition of ERGlu2 in BALB/c mouse assessed as increase in mono-glucosylated FOS level in serum at 20 mg/kg, po administered via gavage starting at 8 hrs post-infection and continuing tid for 5 days and measured at 8 hrs post-final dose by NP-HPLC analysis; type: functional, organism-based
Mus musculus [13] = assay: In vivo inhibition of ERGlu1 in BALB/c mouse assessed as increase in tri-glucosylated FOS level in spleen at >250 mg/kg, po administered via gavage as single dose at 8 hrs post-infection and measured at 8 hrs post dose by NP-HPLC analysis; type: functional, organism-based
dengue virus type 2 [14] = assay: as §1, with “60” for “72”; type: functional, organism-based
dengue virus type 2 [15] = assay: as §1, with “TNF-lapha” for “IFN-gamma”, “two doses” for “single dose”, “36 hrs and 52” for “36”, “52” for “72”; type: functional, organism-based
Influenza A virus [16] = assay: Antiviral activity against Influenza A virus (A/Texas/36/1991(H1N1)) infected in BALB/c mouse assessed as animal survival at 100 mg/kg, po administered via gavage starting at 8 hrs post-infection and continuing TID for 5 days (reference value: 0%); type: functional
Influenza A virus [17] = assay: Antiviral activity against Influenza A virus (A/Texas/36/1991(H1N1)) infected in BALB/c mouse assessed as median death time at 500 mg/kg, po administered via gavage as three dosed at 8, 32 and 56 hrs post infection (reference value: 8 days); type: functional
Mus musculus [18] = assay: In vivo inhibition of ERGlu1 in BALB/c mouse assessed as increase in mono-glucosylated FOS level in serum at 100 to 1000 mg/kg, po administered via gavage at 8 hrs post-infection and measured at 8 hrs post-dose by NP-HPLC analysis; type: functional, organism-based
Influenza A virus [19] = assay: Antiviral activity against Influenza A virus (A/Texas/36/1991(H1N1)) infected in BALB/c mouse assessed as animal survival at 750 mg/kg, po administered via gavage as three doses at 8, 32 and 56 hrs post infection (reference value: 0%); type: functional
Influenza A virus [20] = assay: Antiviral activity against Influenza A virus (A/Texas/36/1991(H1N1)) infected in BALB/c mouse assessed as animal survival at 250 mg/kg, po administered via gavage as single dose at 8 hrs post infection (reference value: 0%); type: functional
Influenza A virus [21] = assay: Antiviral activity against Influenza A virus (A/Texas/36/1991(H1N1)) infected in BALB/c mouse assessed as animal survival at 250 mg/kg, po administered via gavage as three doses at 8, 32 and 56 hrs post infection (reference value: 0%); type: functional
dengue virus type 2 [22] = assay: as §1, with “two doses” for “single dose”, “36 hrs and 52” for “36”; type: functional, organism-based
dengue virus type 2 [23] = assay: Antiviral activity against Dengue virus 2 S221 infected in DENV antibody dependent enhancement AG129 mouse model assessed as animal survival at 750 mg/kg, po administered via gavage as two doses at 24 and 40 hrs post infection (reference value: 4%); type: functional
Influenza A virus [24] = assay: Antiviral activity against Influenza A virus (A/Texas/36/1991(H1N1)) infected in BALB/c mouse assessed as animal survival at 500 mg/kg, po administered via gavage as single dose at 24 hrs post infection (reference value: 0%); type: functional
dengue virus type 2 [25] = assay: Antiviral activity against Dengue virus 2 S221 infected in DENV antibody dependent enhancement AG129 mouse model assessed as reduction in viremia at 750 mg/kg, po administered via gavage as single dose at 36 hrs post infection measured within 8 hrs by qRT-PCR analysis; type: functional
Influenza A virus [26] = assay: Antiviral activity against Influenza A virus (A/Texas/36/1991(H1N1)) infected in BALB/c mouse assessed as median death time at 500 mg/kg, po administered via gavage as two doses at 8 hrs and 32 hrs post infection (reference value: 9 days); type: functional
Influenza A virus [27] = assay: Antiviral activity against Influenza A virus (A/Texas/36/1991(H1N1)) infected in BALB/c mouse assessed as animal survival at 500 mg/kg, po administered via gavage as single dose at 16 hrs post infection (reference value: 0%); type: functional

With `COCCCCCCCCCN1C[C@H](O)[C@@H](O)[C@H](O)[C@H]1CO.Cl` the Activity (dengue virus type 2 [1]) was “Active”, the inhibition (Mus musculus [2]) was “Active” and the Time (Influenza A virus [3]) was 10 days. For the same compound, the survival at 750 mg/kg (Influenza A virus [4]) was 100%, the Time (Influenza A virus [5]) was over 14 days and the inhibition (Mus musculus [6]) was “Active”. The inhibition (Mus musculus [7]) was “Active”, the survival at 250 mg/kg (Influenza A virus [8]) was 60% and the Activity (dengue virus type 2 [9]) was “Active”. The Time (Influenza A virus [10]) was 8 days, the Activity (dengue virus type 2 [11]) was “Active” and the inhibition (Mus musculus [12]) was “Active”. The inhibition (Mus musculus [13]) was “Active”, the Activity (dengue virus type 2 [14]) was “Active” and the Activity (dengue virus type 2 [15]) was “Active”. The survival at 100 mg/kg (Influenza A virus [16]) was 90%, the Time (Influenza A virus [17]) was over 14 days and the inhibition (Mus musculus [18]) was “Active”. The survival at 750 mg/kg (Influenza A virus [19]) was 100%, the survival at 250 mg/kg (Influenza A virus [20]) was 30% and the survival at 250 mg/kg (Influenza A virus [21]) was 0%. For the same compound, the Activity (dengue virus type 2 [22]) was “Active”, the survival at 750 mg/kg (dengue virus type 2 [23]) was 89% and the survival at 500 mg/kg (Influenza A virus [24]) was 30%. For the same compound, the “log(activity)” value (dengue virus type 2 [25]) was over 1, the Time (Influenza A virus [26]) was over 14 days and the survival at 500 mg/kg (Influenza A virus [27]) was 40%.
